Activity calls are given as the source filed them. No cut-off for these calls is given here.
Legend:
[1] = tested on: COLO 205; assay: Antitumor activity against human COLO 205 cells xenografted in BALB/c nude mouse assessed as tumor growth inhibition at 50 mg/kg, sc administered as single dose measured after 3 days relative to control; type: functional; details: COLO 205, sc, 72 h, time 3 day, read-out: TGI
[2] = tested on: COLO 205; assay: Induction of apoptosis in human COLO 205 cells assessed as early apoptotic cells incubated for 12 hrs by Annexin V/FITC and PI staining based flow cytometry analysis (reference value: 14.75 %); type: functional
[3] = biological target: T1, Telomerase reverse transcriptase (Homo sapiens, UniProt O14746); assay: Inhibition of telomerase in human COLO 205 cells by TRAP assay; type: cell-based
[4] = tested on: COLO 205; assay: Induction of apoptosis in human COLO 205 cells assessed as necrotic cells incubated for 56 days by Annexin V/FITC and PI staining based flow cytometry analysis (reference value: 0.2 %); type: functional; details: time 56 day
[5] = biological target: T1, Telomerase reverse transcriptase; assay: Inhibition of telomerase in human HCT-116 cells by TRAP assay; type: cell-based
[6] = tested on: COLO 205; assay: Cell cycle arrest in human COLO 205 cells assessed as accumulation at G2/M phase at 30 uM incubated for 44 days by propidium iodide staining based flow cytometry analysis (reference value: 15.12 %); type: functional; details: time 44 day
[7] = tested on: COLO 205; assay: Antiproliferative activity against human COLO 205 cells assessed as cell viability at 100 uM measured after 72 hrs by MTT assay; type: functional; details: read-out: Activity
[8] = tested on: COLO 205; assay: Induction of apoptosis in human COLO 205 cells assessed as late apoptotic cells incubated for 44 days by Annexin V/FITC and PI staining based flow cytometry analysis (reference value: 1.35 %); type: functional; details: time 44 day
[9] = tested on: COLO 205; assay: Antitumor activity against human COLO 205 cells xenografted in BALB/c nude mouse assessed as change in tumor volume at 50 mg/kg, sc administered as single dose measured after 3 days (reference value: 449.3 +/- 86.2 mm3); type: functional; details: time 3 day
[10] = tested on: COLO 205; assay: Induction of apoptosis in human COLO 205 cells assessed as late apoptotic cells incubated for 24 hrs by Annexin V/FITC and PI staining based flow cytometry analysis (reference value: 13.48 %); type: functional
[11] = biological target: T1, Telomerase reverse transcriptase; assay: Inhibition of telomerase in human COLO 205 cells after 72 hrs by TRAP gel electrophoresis; type: cell-based
[12] = tested on: COLO 205; assay: Induction of apoptosis in human COLO 205 cells assessed as viable cells incubated for 44 days by Annexin V/FITC and PI staining based flow cytometry analysis (reference value: 94.05 %); type: functional; details: time 44 day
[13] = tested on: COLO; assay: In vivo inhibition of telomerase in BALB/c mouse xenografted with human COLO 205 cells assessed as reduction in telomere length at 50 mg/kg, sc; type: functional, organism-based
[14] = tested on: COLO 205; assay: Effect on hTERT mRNA expression in human COLO 205 cells measured after 72 hrs by qRT-PCR analysis; type: functional, cell-based
[15] = tested on: COLO 205; assay: Induction of apoptosis in human COLO 205 cells assessed as early apoptotic cells incubated for 24 hrs by Annexin V/FITC and PI staining based flow cytometry analysis (reference value: 14.75 %); type: functional
[16] = biological target: T1, Telomerase reverse transcriptase; assay: Inhibition of telomerase in human HT-29 cells after 72 hrs by TRAP gel electrophoresis; type: cell-based
[17] = tested on: COLO 205; assay: Effect on TERC mRNA expression in human COLO 205 cells measured after 72 hrs by qRT-PCR analysis; type: functional, cell-based
[18] = tested on: COLO 205; assay: Induction of apoptosis in human COLO 205 cells assessed as early apoptotic cells incubated for 56 days by Annexin V/FITC and PI staining based flow cytometry analysis (reference value: 4.1 %); type: functional; details: time 56 day
[19] = tested on: COLO 205; assay: Antitumor activity against human COLO 205 cells xenografted in BALB/c nude mouse assessed as change in tumor volume at 50 mg/kg, sc administered as single dose measured after 5 days (reference value: 270.1 +/- 52.1 mm3); type: functional; details: time 5 day
[20] = tested on: COLO 205; assay: Antitumor activity against human COLO 205 cells xenografted in BALB/c nude mouse assessed as tumor growth inhibition at 50 mg/kg, sc administered as single dose measured after 5 days relative to control; type: functional; details: COLO 205, sc, 120 h, time 5 day, read-out: TGI

T1 sequence (O14746 whole entry): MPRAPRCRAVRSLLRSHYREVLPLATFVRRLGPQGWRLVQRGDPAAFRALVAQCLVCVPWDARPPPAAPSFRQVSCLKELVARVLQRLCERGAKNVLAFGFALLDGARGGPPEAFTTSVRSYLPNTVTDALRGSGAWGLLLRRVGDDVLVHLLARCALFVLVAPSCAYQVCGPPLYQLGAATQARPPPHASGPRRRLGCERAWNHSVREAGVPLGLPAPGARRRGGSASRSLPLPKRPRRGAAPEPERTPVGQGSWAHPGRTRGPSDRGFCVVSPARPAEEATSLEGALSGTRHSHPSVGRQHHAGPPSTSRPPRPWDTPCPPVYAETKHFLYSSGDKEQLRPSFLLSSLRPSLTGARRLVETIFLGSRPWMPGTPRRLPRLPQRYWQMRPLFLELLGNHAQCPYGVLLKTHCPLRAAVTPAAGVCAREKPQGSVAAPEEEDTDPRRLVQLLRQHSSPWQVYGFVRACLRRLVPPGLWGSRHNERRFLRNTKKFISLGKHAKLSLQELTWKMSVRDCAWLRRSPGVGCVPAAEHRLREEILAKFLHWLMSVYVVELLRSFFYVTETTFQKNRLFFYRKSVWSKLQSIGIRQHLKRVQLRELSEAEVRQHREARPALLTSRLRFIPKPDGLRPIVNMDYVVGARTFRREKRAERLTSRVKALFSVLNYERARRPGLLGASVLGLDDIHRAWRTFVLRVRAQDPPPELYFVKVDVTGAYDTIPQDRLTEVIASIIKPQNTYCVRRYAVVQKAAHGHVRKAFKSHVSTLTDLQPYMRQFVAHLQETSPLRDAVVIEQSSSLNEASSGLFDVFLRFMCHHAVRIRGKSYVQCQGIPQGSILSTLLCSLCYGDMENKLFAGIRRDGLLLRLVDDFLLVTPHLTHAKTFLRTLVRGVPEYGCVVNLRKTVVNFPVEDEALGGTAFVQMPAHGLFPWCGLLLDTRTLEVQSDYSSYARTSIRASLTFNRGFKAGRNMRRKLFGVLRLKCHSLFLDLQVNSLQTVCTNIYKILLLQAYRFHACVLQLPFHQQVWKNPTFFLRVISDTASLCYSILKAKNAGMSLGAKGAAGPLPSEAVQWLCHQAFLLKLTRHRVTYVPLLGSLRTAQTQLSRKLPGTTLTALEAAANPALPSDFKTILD

IC50 [3]	IC90 [3]	IC50 [5]	IC90 [5]	inhibition [11]	inhibition [16]	Compound	Activity [2]	Activity [4]	Activity [6]	viability at 100 µM [7]	Activity [8]	Activity [9]	Activity [10]	Activity [12]	Activity [14]	Activity [15]	Activity [17]	Activity [18]	further results
0.9 µM	9.1 µM	0.85 µM	10.2 µM	Dose-Dependent Effect	Dose-Dependent Effect	Cc1cn([C@H]2C[C@@H](n3cc(CNC(=O)Nc4cccc(S(N)(=O)=O)c4)nn3)[C@@H](CO)O2)c(=O)[nH]c1=O	12.33%	1.47%	1.32%	74.9%	23.57%	305.3 mm3	1.86%	62.43%	inactive	3.09%	inactive	29.22%	inhibition in vivo at 50 mg/kg [1]: 32.1%; inhibition [13]: Active
5.9 µM	29.1 µM	5.6 µM	31 µM	Dose-Dependent Effect	Dose-Dependent Effect	Cc1cn([C@H]2C[C@@H](n3cc(COC(=O)c4ccc(S(N)(=O)=O)cc4)nn3)[C@@H](CO)O2)c(=O)[nH]c1=O	8.27%	0.94%	0.74%	51.6%	12.74%	552.6 mm3	3.13%	76.55%	inactive	3.82%	inactive	27.33%	Activity [19]: 181.4 mm3; inhibition in vivo at 50 mg/kg [20]: 33%

From ChEMBL document CHEMBL5030523, “Mechanisms of the Antiproliferative and Antitumor Activity of Novel Telomerase-Carbonic Anhydrase Dual-Hybrid Inhibitors” (J Med Chem, 2021)
